The Ki is a dissociation constant, usually derived from enzyme kinetics or from competition with a known ligand. The low end stands for higher affinity, the high end for lower affinity.

Each structure is given as a SMILES string.

The target in the test is Guanine deaminase (Oryctolagus cuniculus). As to the kind of experiment: Binding affinity against Guanine deaminase (guanase) from rabbit liver was determined.

In turn, `N=c1nc(N)nc(N)c2c1N(COCCO)CN2` returned a Ki of 29.7 µM. In other words, the double-digit micromolar range.

(Values after BindingDB's records for doi:10.1016/s0960-894x(01)00591-1 (University of Maryland, 2001).)
